PMC3578785, “Improved BM212 MmpL3 Inhibitor Analogue Shows Efficacy in Acute Murine Model of Tuberculosis Infection” (PLoS ONE, 2013)
Values after ≈ are worked out from the molar mass of the structure shown. Like-named read-outs stand apart in the source and are kept apart here.

How the values were obtained:
in vitro [1] = assay type: in vitro ADME, mouse; details: pH 7.4; for Cli mouse: 0.5 µM; for half-life: mouse microsomes, read-out: t1/2 in mouse microsomes
Protocol: (§1) Protocol S6. Microsomal fraction stability experimental procedure.
(§2) Pooled mouse and human liver microsomes are purchased from Xenotech. Microsomes (final protein concentration 0.5 mg/mL, MgCl2 (final concentration = 5 mM) and test compound (final substrate concentration = 0.5 µM; final DMSO concentration = 0.5%) in 0.1M phosphate buffer pH 7.4 were pre-incubated at 37°C prior to the addition of NADPH (final concentration = 1 mM) to initiate the reaction. The final incubation volume was 600 µL. A control incubation was included for each compound tested where 0.1 M phosphate buffer pH 7.4 is added instead of NADPH (minus NADPH). One control compound was included with each species. All incubations were performed singularly for each test compound. Each compound was incubated for 30 minutes and samples (90 µL) of incubate were taken at 0, 5, 15, 20 and 30 min. The control (minus NADPH) was sampled at 30 min only. The reactions were stopped by the addition of sample to 200 µL Acetonitrile:Methanol 3:1 containing internal standard. The terminated samples were centrifuged at 2.500 rpm for 20 min at 4°C to precipitate the protein.
(§3) Quantitative Analysis: following protein precipitation, the samples were analyzed using specific […]
(§4) Data Analysis: from a plot of ln peak area ratio (compound peak area/internal standard peak area) against time, the gradient of the line was determined. Subsequently, half-life and intrinsic clearance were calculated using the equations below:
(§5) Elimination rate constant (k) = (- gradient)
(§6) Half life (t1/2) (min) = […]
(§7) Intrinsic Clearance (CLint) (mL/min/g protein) = […] where V=Incubation volume mL/g microsomal protein.

M. tuberculosis H37Rv = test: microbe, parasite or virus in culture; assay type: cell-based; details: Mycobacterium tuberculosis, aerobic conditions
[2] = target: human serum albumin (HSA) (Homo sapiens, UniProt P02768); assay type: in vitro ADME; details: human, pH 7.4
Protocol: Standard physical chemical property determination methods were used. Please see the Supporting Information for details.
Protocol S4. Determination of compounds binding to human serum albumin (HSA).
The determination of compounds binding to human serum albumin (HSA) was carried out by retention time measurements using immobilized HSA HPLC columns obtained from Chiral Technologies Ltd, France. The column dimensions were 50x3 mm. The mobile phase was 50 mM ammonium acetate buffer pH 7.4 and HPLC grade 2-propanol. HPLC Method: flow rate 1.8 ml/min applying 2.5 min 2-propanol gradient up to 30%. From 2.5 min to 4.5 min the 2-propanol concentration in the mobile phase was kept at 30%. From 4.5 min to 4.6 min, the 2-propanol concentration was decreased to 0% and kept like that until the end of the gradient run which was 6 min. A calibration set of compounds was first analyzed for which plasma protein binding data were available: Warfarin, Nizatidine, Bromazepam, Carbamazepine, Budesonide, Nicardipine, Indomethacine, Piroxicam, Naproxen. The calculation of the HSA binding data expressed as %HSA was carried out as described previously.

in vitro [3] = details: African green monkey
in vitro [4] = details: plasma, pH 7.4
in vitro [5] = assay type: in vitro ADME, human; details: pH 7.4; for Cli human: 0.5 µM; for half-life: human microsomes, read-out: t1/2 in human microsomes
Protocol: as §1, §2, §3, §4, §5, §6, §7

HepG2 cells = details: human, 48 h

Sequence of human serum albumin (HSA) (P02768 25-609): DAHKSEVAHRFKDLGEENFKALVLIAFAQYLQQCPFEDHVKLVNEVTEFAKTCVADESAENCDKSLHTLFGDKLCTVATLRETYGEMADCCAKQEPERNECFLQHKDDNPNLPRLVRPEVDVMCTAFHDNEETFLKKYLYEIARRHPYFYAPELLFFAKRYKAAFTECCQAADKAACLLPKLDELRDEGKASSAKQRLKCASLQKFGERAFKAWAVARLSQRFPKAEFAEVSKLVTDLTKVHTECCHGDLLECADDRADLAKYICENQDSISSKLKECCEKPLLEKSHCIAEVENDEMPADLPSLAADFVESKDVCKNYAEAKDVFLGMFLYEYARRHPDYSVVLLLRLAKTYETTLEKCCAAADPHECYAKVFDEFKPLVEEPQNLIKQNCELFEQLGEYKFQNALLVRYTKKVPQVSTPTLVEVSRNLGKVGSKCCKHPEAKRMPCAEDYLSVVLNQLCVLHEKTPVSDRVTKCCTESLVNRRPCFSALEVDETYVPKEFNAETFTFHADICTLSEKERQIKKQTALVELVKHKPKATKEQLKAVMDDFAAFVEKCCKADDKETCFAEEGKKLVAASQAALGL

Row | SMILES | chromatographic logD (physchem; pH 2) | chromatographic logD (physchem; pH 7.4) | chromatographic logD (physchem; pH 10.5) | Cli mouse (in vitro [1]) | half-life (in vitro [1]) | MIC (M. tuberculosis H37Rv) | HSA (%) binding [2] | CC50 at 72 h (in vitro [3]) | fraction unbound at 1 µM (in vitro [4]) | Cli human (in vitro [5]) | half-life (in vitro [5]) | Tox50, cytotoxicity in HepG2 cells (HepG2 cells) | melting point
1 | COc1ccc(-n2c(-c3ccc(C(C)C)cc3)cc(CN3CCOCC3)c2C)cc1 [Compound 21, 2-Methyl-3-[(morpholin-4-yl)-methyl]-5-[4-(i-propyl)phenyl]-1-[4-(methoxy)phenyl]-1H-pyrrole] | 1.35 | 4.32 | 4.81 | 6.07 mL/min/g | 10.7 min | 0.3 µM (≈ 0.121 µg/mL) | 97.07% | 28.2 µM | 0.001 | 2.15 mL/min/g | > 30 min | 14.1 µM | 109 °C
2 | CCc1ccc(-n2c(-c3ccc(OC)cc3)cc(CN3CCOCC3)c2C)cc1 [Compound 23, 2-Methyl-3-[(morpholin-4-yl)-methyl]-5-[4-(methoxy)phenyl]-1-[4-(ethyl)phenyl]-1H-pyrrole] | 1.24 | 4.05 | 4.52 | 7.8 ± 0.5 mL/min/g | < 5 min | 0.3 µM (≈ 0.117 µg/mL) | 96.79% | 16 µM | 0.002 | <0.5 mL/min/g | > 30 min | 14.7 µM | 72 °C
3 | CCCc1ccc(-n2c(-c3ccc(Cl)cc3)cc(CN3CCOCC3)c2C)cc1 [Compound 16, 2-Methyl-3-[(morpholin-4-yl)-methyl]-5-[4-(chloro)phenyl]-1-[4-(propyl)phenyl]-1H-pyrrole] | 1.72 | 5.61 | 5.86 |  | > 30 min | 0.6 µM (≈ 0.245 µg/mL) | 98.24% | 60.1 µM | < 0.001 | <0.5 mL/min/g | > 30 min | 15.4 µM | 94 °C
4 | CCc1ccc(-c2cc(CN3CCOCC3)c(C)n2-c2ccc(F)cc2)cc1 [Compound 8, 2-Methyl-3-[(morpholin-4-yl)-methyl]-5-[4-(ethyl)phenyl]-1-[4-(fluoro)phenyl]-1H-pyrrole] | 1.26 | 4.21 | 4.64 | 5.64 mL/min/g | 12.5 min | 0.2 µM (≈ 0.0757 µg/mL) | 97.14% | 18.9 µM | 0.006 | 1.09 mL/min/g | > 30 min | 19.5 µM | 107 °C
5 | Cc1ccc(-c2cc(CN3CCOCC3)c(C)n2-c2ccc(F)cc2)cc1 [Compound 5, 2-Methyl-3-[(morpholin-4-yl)-methyl]-5-[4-(methyl)phenyl]-1-[4-(fluoro)phenyl]-1H-pyrrole] | 1.12 | 3.86 | 4.26 |  | 20.4 min | 0.3 µM (≈ 0.109 µg/mL) | 96.72% | > 351 µM | 0.005 | <0.5 mL/min/g | > 30 min | 20.08 µM | 133 to 135 °C
6 | Cc1ccc(-c2cc(CN3CCSCC3)c(C)n2-c2ccc(F)cc2)cc1 [Compound 2] | 1.31 | 4.54 | 5.08 | 7.2 ± 0.2 mL/min/g | 8.2 min | 0.16 to 0.2 µM (≈ 0.0609 to 0.0761 µg/mL) | 97.91% | 179 µM | < 0.001 |  |  | 24.01 µM | 
7 | COc1ccc(-n2c(-c3ccc(C)cc3)cc(CN3CCOCC3)c2C)cc1 [Compound 18, 2-Methyl-3-[(morpholin-4-yl)-methyl]-5-[4-(methyl)phenyl]-1-[4-(methoxy)phenyl]-1H-pyrrole] | 1.04 | 3.6 | 4.12 | 8.92 mL/min/g | < 5 min | 2 µM (≈ 0.753 µg/mL) | 95.87% | 208 µM | 0.007 | 1.26 mL/min/g | 59.9 min | 11.7 µM | 128 °C
8 | CCc1ccc(-n2c(-c3ccc(Cl)cc3)cc(CN3CCOCC3)c2C)cc1 [Compound 15, 2-Methyl-3-[(morpholin-4-yl)-methyl]-5-[4-(chloro)phenyl]-1-[4-(ethyl)phenyl]-1H-pyrrole] | 1.54 | 5.01 | 5.36 | 4.0 ± 0.1 mL/min/g | 18.5 min | 0.6 µM (≈ 0.237 µg/mL) | 98.03% | 170 µM | < 0.001 | 0.9 ± 0 mL/min/g | > 30 min | 17.8 µM | 102 °C
9 | Cc1c(CN2CCN(C)CC2)cc(-c2ccc(Cl)cc2)n1-c1ccc(Cl)cc1 [Compound 1] | 0.7 | 4.51 | 5.01 | 0.7 ± 0.1 mL/min/g | > 30 min | 5 µM (≈ 2.07 µg/mL) | 98.07% |  | 0.002 |  |  | 7.8 µM | 
10 | COc1ccc(-c2cc(CN3CCSCC3)c(C)n2-c2ccc(F)cc2)cc1 [Compound 3] | 1.07 | 3.97 | 4.62 | 18.76 mL/min/g | < 5 min | 0.16 to 0.2 µM (≈ 0.0634 to 0.0793 µg/mL) | 96.82% | > 302 µM | 0.004 |  |  |  | 
11 | Cc1ccc(-n2c(-c3ccc(Cl)cc3)cc(CN3CCOCC3)c2C)cc1 [Compound 14, 2-Methyl-3-[(morpholin-4-yl)-methyl]-5-[4-(chloro)phenyl]-1-[4-(methyl)phenyl]-1H-pyrrole] | 1.28 | 4.53 | 4.94 | 7.41 mL/min/g | 9.69 min | 1.3 µM (≈ 0.495 µg/mL) | 97.62% | 9.31 µM | < 0.001 | 0.57 mL/min/g | > 30 min | 26.0 µM | 111 °C
12 | CSc1ccc(-c2cc(CN3CCSCC3)c(C)n2-c2ccc(F)cc2)cc1 [Compound 4] | 1.33 | 4.52 | 5.03 | 7.3 ± 0.1 mL/min/g | 10 min | 0.16 to 0.2 µM (≈ 0.066 to 0.0825 µg/mL) | 98.04% | 15.2 µM | 0.007 |  |  |  | 
13 | COc1ccc(-c2cc(CN3CCOCC3)c(C)n2-c2ccc(F)cc2)cc1 [Compound 6, 2-Methyl-3-[(morpholin-4-yl)-methyl]-5-[4-(methoxy)phenyl]-1-[4-(fluoro)phenyl]-1H-pyrrole] | 0.93 | 3.32 | 3.73 | 4.7 ± 0.1 mL/min/g | 15.9 min | 0.6 µM (≈ 0.228 µg/mL) | 95.58% | 58.7 µM | 0.017 | 0.5 ± 0 mL/min/g | > 30 min |  | 169 °C
